Laboratory results published in US20220031813A1, “INHIBITOR OF EXTRACELLULAR TRAP FORMATION IN LEUKOCYTES” (priority 2013, published 2022).

Assays:
[1] = tested on: human neutrophils; assay: Rate of NETs formation in PMA-stimulated neutrophils after pre-treatment, counted by confocal microscopy; assay type: cell-based; details: pre-treatment 10 μM for 30 minutes, then PMA 25 nM
[2] = tested on: human neutrophils; assay: Specificity experiment: inhibition of NETs formation by DNA concentration in the culture supernatant; assay type: cell-based; details: n=3, p<0.01, FIG. 10
Experimental: About 1 hour after the isolation of the neutrophils described in “1. Method of isolating human neutrophils” in Example 2, the neutrophils were pre-treated. On an 8-well microslide (Cat. No. ib 80826 Ibidi (registered trademark)), the neutrophils were seeded in 400 μl of culture DMEM+2% human serum Alb (serum human albumin; Product No. A9080 Sigma+4 mM L-glutamine) at a rate of about 1.0×10^5 cells/well, and stimulated with PMA (final concentration: 25 nM, stock: 10 mM in DMSO, Sigma Prod No. P8139). At thirty minutes before the stimulation, and at every one hour or every two hours after the stimulation, 200 μg/ml of human lactoferrin (stock: 100 mg/ml, 200 μl; Cat. No. SIGL6793, SIGMA) was added to perform inhibition [FIG. 2].
The culture supernatant was recovered and centrifuged at 200×g for 10 minutes, and the supernatant was transferred to a new microscopic centrifuge tube. The DNA amount was measured by use of Picogreen dsDNA assay reagent (P11496 Invitrogen) in accordance with an accompanying protocol. Treatment with human lactoferrin at one hour and two hours after the stimulation was a similar effect to the prior pre-treatment, the DNA concentration in the culture supernatant decreased, resulting in suppression of the release of the DNAs by the NETs [FIG. 2]. […]

[3] = bovine proteins; cited from earlier work

| Molecule | formation of the NETs at plateau, compared with stimulation merely with PMA [1] | inhibition of the formation of the NETs [2] | Isoelectric point [3] |
| --- | --- | --- | --- |
| c1ccc2c(c1)[I+]c1ccccc1-2 [DPI, diphenyleneiodoniumchloride, reference compound] | ⅓ | – | – |
| lactoperoxidase [reference compound] | – | Neither lactoperoxidase nor angiogenin inhibited | 8.0 |
